Assay results reported in patent publication US20240342292A1, “Compounds for the Degradation of EGFR Kinase” (BeiGene Switzerland GmbH, priority 2021, published 2024).

What was measured:
Del19/T790M/C797S EGFR = experiment: EGFR degradation HTRF assay in H1975-clone #28 (DTC) cells; assay type: cell-based; conditions: H1975 # 28 DTC (Del19/T790M/C797S), 16h treatment; for DC50: HTRF; for Dmax (%): maximum percentage of degradation
Procedure, shortened: (§1)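 Remaining EGFR protein was measured by HTRF (337 nm excitation, 665/620 nm emission) in lysates after overnight antibody incubation. Cells had been exposed for 16 h to an 8-point, 5-fold series starting at 10 uM, and DC50 values were fitted with a Hill equation.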

L858R/T790M/C797S EGFR = target: T1, L858R/T790M/C797S EGFR (Homo sapiens, UniProt P00533, C797S/L858R/T790M); experiment: EGFR degradation HTRF assay in H1975-clone #25 (LTC) cells; assay type: cell-based; conditions: 16h treatment; for DC50: H1975 # 25-LTC (L858R/T790M/C797S), HTRF; for Dmax: NCI-H1975, H1975 # 25-LTC (L858R/T790M/C797S), maximum percentage of degradation
T1 construct: expressed in transfected cells; host or cells: H1975 clone #25 (lentiviral over-expression, endogenous EGFR knocked out by sgRNA)
T1 sequence (P00533 25-1210 T790M/C797S/L858R): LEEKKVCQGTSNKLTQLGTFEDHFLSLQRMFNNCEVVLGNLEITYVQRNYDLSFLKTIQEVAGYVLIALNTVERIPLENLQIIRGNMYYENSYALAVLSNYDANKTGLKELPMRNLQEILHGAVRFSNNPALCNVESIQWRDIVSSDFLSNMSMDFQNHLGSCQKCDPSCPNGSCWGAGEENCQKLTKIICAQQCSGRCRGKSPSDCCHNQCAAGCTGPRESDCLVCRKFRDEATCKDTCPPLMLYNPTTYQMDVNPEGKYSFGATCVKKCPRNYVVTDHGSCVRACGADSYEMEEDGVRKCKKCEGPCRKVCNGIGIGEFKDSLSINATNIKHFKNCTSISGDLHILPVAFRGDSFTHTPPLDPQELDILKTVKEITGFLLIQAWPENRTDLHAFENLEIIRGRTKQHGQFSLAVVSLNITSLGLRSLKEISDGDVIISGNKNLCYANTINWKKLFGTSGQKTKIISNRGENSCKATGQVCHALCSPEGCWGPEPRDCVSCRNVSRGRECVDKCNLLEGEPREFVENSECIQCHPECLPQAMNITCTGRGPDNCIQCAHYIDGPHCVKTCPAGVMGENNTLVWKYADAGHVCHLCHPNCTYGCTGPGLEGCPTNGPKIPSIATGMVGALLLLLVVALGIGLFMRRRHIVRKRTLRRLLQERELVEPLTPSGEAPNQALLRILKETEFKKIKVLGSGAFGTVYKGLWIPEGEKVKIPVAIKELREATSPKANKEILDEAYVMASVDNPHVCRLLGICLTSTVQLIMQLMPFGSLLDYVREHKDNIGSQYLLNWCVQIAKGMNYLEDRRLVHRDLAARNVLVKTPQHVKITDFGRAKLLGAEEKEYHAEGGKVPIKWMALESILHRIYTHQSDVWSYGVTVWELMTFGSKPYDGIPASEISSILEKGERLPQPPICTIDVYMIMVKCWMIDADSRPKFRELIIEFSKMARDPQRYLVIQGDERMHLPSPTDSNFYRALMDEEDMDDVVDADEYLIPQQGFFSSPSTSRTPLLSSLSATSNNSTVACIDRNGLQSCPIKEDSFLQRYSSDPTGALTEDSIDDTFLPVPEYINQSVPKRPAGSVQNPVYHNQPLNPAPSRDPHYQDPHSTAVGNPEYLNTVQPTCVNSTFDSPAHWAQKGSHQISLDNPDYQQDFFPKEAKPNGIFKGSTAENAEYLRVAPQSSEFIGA
Procedure, shortened: as §1

Structure (SMILES) | DC50 (Del19/T790M/C797S EGFR) [nM] | DC50 (L858R/T790M/C797S EGFR) [nM] | Dmax (L858R/T790M/C797S EGFR) [%] | Dmax (%) (Del19/T790M/C797S EGFR)
Cc1cc2cc(n1)-c1cnn(C)c1OCCC[C@@H](C)CN1/C(=N/C2=O)Nc2ccc(N3CCN(CC4CN(c5cc(F)c([C@H]6CCC(=O)NC6=O)c(F)c5)C4)[C@@H](C#N)C3)cc21 [Example 423, (R)-1-((1-(4-((R)-2,6-dioxopiperidin-3-yl)-3,5-difluorophenyl)azetidin-3-yl)methyl)-4-((R,E)-1^1,2^6,7-trimethyl-3-oxo-5^2,5^3-dihydro-1^1H,5^1H-1l-oxa-4-aza-5(2,1)-benzo[d]imidazola-2(2,4)-pyridina-1(4,5)-pyrazolacycloundecaphane-5^6-yl)piperazine-2-carbonitrile] | 0.655 | 1.41 | 78.8 | 67.20
Cc1cc2cc(n1)-c1cnn(C)c1OCCC[C@@H](C)CN1/C(=N/C2=O)Nc2ccc(N3CCN(C4CCN(c5cc(F)c([C@H]6CCC(=O)NC6=O)c(F)c5)CC4)C(=O)C3)cc21 [Example 425, (R)-3-(2,6-difluoro-4-(4-(2-oxo-4-((R,E)-1^1,2^6,7-trimethyl-3-oxo-5^2,5^3-dihydro-1^1H,5^1H-11-oxa-4-aza-5(2,1)-benzo[d]imidazola-2(2,4)-pyridina-1(4,5)-pyrazolacycloundecaphane-5^6-yl)piperazin-1-yl)piperidin-1-yl)phenyl)piperidine-2,6-dione] | 0.957 | 0.73 | 92.7 | 83.85
Cc1cc2cc(n1)-c1cnn(C)c1OCCC[C@@H](C)CN1/C(=N/C2=O)Nc2ccc(N(C)C3CN(C4CCN(c5cc(F)c([C@H]6CCC(=O)NC6=O)c(F)c5)CC4)C3)cc21 [Example 438, (R)-3-(2,6-difluoro-4-(4-(3-(methyl((R,E)-1^1,2^6,7-trimethyl-3-oxo-5^2,5^3-dihydro-1^1H,5^1H-11-oxa-4-aza-5(2,1)-benzo[d]imidazola-2(2,4)-pyridina-1(4,5)-pyrazolacycloundecaphane-5^6-yl)amino)azetidin-1-yl)piperidin-1-yl)phenyl)piperidine-2,6-dione] | 0.983 | 0.964 | 85.6 | 72.51
Cc1cc2cc(n1)-c1cnn(C)c1OCCC[C@@H](C)CN1/C(=N/C2=O)Nc2ccc(C(=O)N(C)C3CCN(CCc4cc(F)c([C@H]5CCC(=O)NC5=O)c(F)c4)CC3(C)C)cc21 (stereo partly drawn) [Example 439, (R,E)-N—((S)-1-(4-((R)-2,6-dioxopiperidin-3-yl)-3,5-difluorophenethyl)-3,3-dimethylpiperidin-4-yl)-N,1^1,2^6,7-tetramethyl-3-oxo-5^2,5^3-dihydro-1^1H,5^1H-11-oxa-4-aza-5(2,1)-benzo[d]imidazola-2(2,4)-pyridina-1(4,5)-pyrazolacycloundecaphane-5^6-carboxamide] | 1.52 | 1.4 | 87.3 | 76.03
Cc1cc2cc(n1)-c1cnn(C)c1OCCC[C@@H](C)CN1/C(=N/C2=O)Nc2ccc(N3CCN([C@H]4CCN(c5ccc([C@H]6CCC(=O)NC6=O)nc5C)C[C@@H]4F)CC3)cc21 [Example 440, (R)-3-(5-((3S,4S)-3-fluoro-4-(4-((R,L)-1^1,2^6,7-trimethyl-3-oxo-5^2,5′-dihydro-1^1H,5^1H-11-oxa-4-aza-5(2,1)-benzo[d]imidazola-2(2,4)-pyridina-1(4,5)-pyrazolacycloundecaphane-5^6-yl)piperazin-1-yl)piperidin-1-yl)-6-methylpyridin-2-yl)piperidine-2,6-dione] | 0.884 | 0.936 | 93.5 | 85.39
Cc1cc2cc(n1)-c1cnn(C)c1OCCC[C@@H](C)CN1/C(=N/C2=O)Nc2ccc(N3CCN(CCNc4cc(F)c([C@H]5CCC(=O)NC5=O)c(F)c4)[C@H](CC#N)C3)cc21 [Example 442, 2-((R)-1-(2-((4-((R)-2,6-dioxopiperidin-3-yl)-3,5-difluorophenyl)amino)ethyl)-4-((R,E)-1^1,2^6,7-trimethyl-3-oxo-5^2,5^3-dihydro-1^1H,5^1H-11-oxa-4-aza-5(2,1)-benzo[d]imidazola-2(2,4)-pyridina-1(4,5)-pyrazolacycloundecaphane-5^6-yl)piperazin-2-yl)acetonitrile] | 0.721 | 0.742 | 84.4 | 70.20
Cc1cc2cc(n1)-c1cnn(C)c1OCCC[C@@H](C)CN1/C(=N/C2=O)Nc2ccc(N3CCN([C@H]4C[C@@H](Nc5cc(F)c([C@H]6CCC(=O)NC6=O)c(F)c5)C4)CC3)cc21 [Example 445, (R)-3-(2,6-difluoro-4-(((1 S,3S)-3-(4-((R,E)-1^1,2^6,7-trimethyl-3-oxo-5^2,5^3-dihydro-1^1H,5^1H-11-oxa-4-aza-5(2,1)-benzo[d]imidazola-2(2,4)-pyridina-1(4,5)-pyrazolacycloundecaphane-5^6-yl)piperazin-1-yl)cyclobutyl)amino)phenyl)piperidine-2,6-dione] | 2.14 | 0.559 | 84.5 | 74.88
Cc1cc2cc(n1)-c1cnn(C)c1OCCC[C@@H](C)CN1/C(=N/C2=O)Nc2ccc(CCN3CCN(c4cc(F)c([C@H]5CCC(=O)NC5=O)c(F)c4)CC3)cc21 [Example 446, (R)-3-(2,6-difluoro-4-(4-(2-((R,E)-1^1,2^6,7-trimethyl-3-oxo-5^2,5^3-dihydro-1^1H,5^1H-11-oxa-4-aza-5(2,1)-benzo[d]imidazola-2(2,4)-pyridina-1(4,5)-pyrazolacycloundecaphane-5^6-yl)ethyl)piperazin-1-yl)phenyl)piperidine-2,6-dione] | 1.19 | 0.696 | 91.8 | 76.42

Further lines, with some results ahead:

DC50 (Del19/T790M/C797S EGFR) [nM] | DC50 (L858R/T790M/C797S EGFR) [nM] | Dmax (L858R/T790M/C797S EGFR) [%] | Structure (SMILES) | Dmax (%) (Del19/T790M/C797S EGFR)
0.639 | 0.604 | 87.5 | Cc1cc2cc(n1)-c1cnn(C)c1OCCC[C@@H](C)CN1/C(=N/C2=O)Nc2ccc(N3CCN(C4CCN(c5cc(F)c([C@H]6CCC(=O)NC6=O)c(F)c5)CC4)[C@@H](CO)C3)cc21 [Example 421, (R)-3-(2,6-difluoro-4-(4-((R)-2-(hydroxymethyl)-4-((R,E)-1^1,2^6,7-trimethyl-3-oxo-5^2,5^3-dihydro-1^1H,5^1H-11-oxa-4-aza-5(2,1)-benzo[d]imidazola-2(2,4)-pyridina-1(4,5)-pyrazolacycloundecaphane-5^6-yl)piperazin-1-yl)piperidin-1-yl)phenyl)piperidine-2,6-dione] | 84.08
0.652 | 0.856 | 92.2 | Cc1cc2cc(n1)-c1cnn(C)c1OCCC[C@@H](C)CN1/C(=N/C2=O)Nc2ccc(N3CCN(CC4CN(c5cc(F)c([C@H]6CCC(=O)NC6=O)c(F)c5)C4)[C@@H](CO)C3)cc21 [Example 422, (R)-3-(2,6-difluoro-4-(3-(((R)-2-(hydroxymethyl)-4-((R,E)-1^1,2^6,7-trimethyl-3-oxo-5^2,5^3-dihydro-1^1H,5^1H-li-oxa-4-aza-5(2,1)-benzo[d]imidazola-2(2,4)-pyridina-1(4,5)-pyrazolacycloundecaphane-5^6-yl)piperazin-1-yl)methyl)azetidin-1-yl)phenyl)piperidine-2,6-dione] | 83.55
0.534 | 1.01 | 91 | Cc1cc2cc(n1)-c1cnn(C)c1OCCC[C@@H](C)CN1/C(=N/C2=O)Nc2ccc(N3CCN(CCC4CCN(c5cc(F)c([C@H]6CCC(=O)NC6=O)c(F)c5)CC4)CC3=O)cc21 [Example 437, (R)-3-(2,6-difluoro-4-(4-(2-(3-oxo-4-((R,E)-1^1,2^6,7-trimethyl-3-oxo-5^2,5^3-dihydro-1^1H,5^1H-11-oxa-4-aza-5(2,1)-benzo[d]imidazola-2(2,4)-pyridina-1(4,5)-pyrazolacycloundecaphane-5^6-yl)piperazin-1-yl)ethyl)piperidin-1-yl)phenyl)piperidine-2,6-dione] | 88.76
0.643 | 0.857 | 89.2 | Cc1cc2cc(n1)-c1cnn(C)c1OCC[C@@H]1C[C@H]1CN1/C(=N/C2=O)Nc2ccc(N3CCN(C4CCN(c5cc(F)c([C@H]6CCC(=O)NC6=O)c(F)c5)CC4)CC3)cc21 [Example 441, (R)-3-(4-(4-(4-((7′R,7^2S,E)-1^1,2^6-dimethyl-3-oxo-5^2,5^3-dihydro-1^1H,5^1H-10-oxa-4-aza-5(2,1)-benzo[d]imidazola-2(2,4)-pyridina-1(4,5)-pyrazola-7(1,2)-cyclopropanacyclodecaphane-5^6-yl)piperazin-1-yl)piperidin-1-yl)-2,6-difluorophenyl)piperidine-2,6-dione] | 89.27
0.645 | 0.652 | 84.2 | Cc1cc2cc(n1)-c1cnn(C)c1OCCC[C@@H](C)CN1/C(=N/C2=O)Nc2ccc(N3CCN(C4CCN(c5cc(F)c([C@H]6CCC(=O)NC6=O)c(F)c5)CC4)[C@H](CO)C3)cc21 [Example 447, (R)-3-(2,6-difluoro-4-(4-((S)-2-(hydroxymethyl)-4-((R,E)-1^1,2^6,7-trimethyl-3-oxo-5^2,5^3-dihydro-1^1H,5^1H-11-oxa-4-aza-5(2,1)-benzo[d]imidazola-2(2,4)-pyridina-1(4,5)-pyrazolacycloundecaphane-5^6-yl)piperazin-1-yl)piperidin-1-yl)phenyl)piperidine-2,6-dione] | 76.31
